The record followed here is patent US10626148B2, “Glycopeptides conjugates and uses thereof” (priority 2015, dated 2020).

Test [1] has as its system Vancomycin-resistant E. faecium (VanA, ATCC 51559). Description: MIC, micro-dilution broth, VREm. The test is classed as cell-based. The protocol: (§1) Test compounds were assayed in a micro-dilution broth format. Stock solutions were made by serially diluting the compounds using autoclaved millipore water or broth media. The antibacterial activity of the compounds was determined against gram positive bactreia like methicillin-resistant S. aureus (MRSA), vancomycin-intermediate-resistant S. aureus (VISA), vancomycin-sensitive E. faecium (VSE), vancomycin-resistant E. faecalis and vancomycin-resistant E. faecium (VRE). Antibacterial activity of dipicolyl-vancomycin conjugate conjugate (4) in combination with meropemem was determined against gram-negative bacteria such as K. pneumoniae ATCC BAA2146, clinical isolates K. pneumoniae R3949, K. pneumoniae R3934, E. coli R3336 and A. baumanii R676. Bacteria, to be tested, were grown for about 10 h in the suitable media, MRSA, VISA and gram negative bacteria were grown in Yeast-dextrose broth (about 1 g of beef extract, about 2 g of yeast extract, about 5 g of peptone and about 5 g of NaCl in about 1000 mL of sterile distilled water (pH-7)). For solid media, about 5% agar was used along with above mentioned composition. VSE and VRE were cultured in Brain Heart Infusion broth (Himedia). The bacterial samples were freeze dried and stored at −80° C. About 5 μL of these stocks were added to about 3 mL of the nutrient broth or Brain Heart Infusion broth and the culture was grown for about 6 h at about 37° C. prior to the experiments. This 6 h grown culture gives about 10^9 cfu/mL and this was determined by spread plating method. The 6 h grown culture was diluted to give effective cell concentration of about 10^5 cfu/mL which was then used for determining MIC. Compounds were serially diluted, in sterile water (2-fold dilution is employed) in a way that the working concentration was about 10 μM for MRSA, and VSE while for VRE, VISA and gram negative bacteria; it was about 100 μM. About 50 μL of these serial dilutions were added to the wells of 96 well plate followed by the addition of about 150 μL of bacterial solution. The plates were then incubated at about 37° C., 150 rpm in the incubator and O.D at 620 nm was recorded at an interval of about 24 h using TECAN (Infinite series, M200 pro) Plate Reader. Each concentration had triplicate values and the whole experiment was done at least twice and the MIC value was determined by taking the average of triplicate O.D. values for each concentration and plotting it against concentration. The data was then subjected to sigmoidal fitting.

For test [2], the system named is NDM-1 expressing Klebsiella pneumoniae ATCC BAA2146. Kind of test: microbe, parasite or virus in culture. The test is classed as cell-based. The following applies: for MIC: Klebsiella pneumoniae. The protocol:
as §1
(§2) Then, the antibacterial activities of Dipicolyl-vancomycin conjugate (4) is checked in combination with meropenem against New-Delhi β-lactamase producing gram negative bacteria such as K. pneumoniae BAA2146, clinical isolates K. pneumoniae R3949, K. pneumoniae R3934, E. coli R3336 and A. baumanii R676. […] Further we have also evaluated the antibacterial activity of dipicolyl-vancomycin conjugate (4) in presence of zinc sulphate, wherein it forms dipicolyl-vancomycin-zinc complex (5).

Test [3] deals with NDM-1 expressing Escherichia coli R3336. Kind of test: microbe, parasite or virus in culture. The following applies: for MIC: Escherichia coli. The test is classed as cell-based. On the procedure: as §1, §2
Test [4] deals with NDM-1 expressing Klebsiella pneumoniae R3949. Kind of test: microbe, parasite or virus in culture. The test is classed as cell-based. The following applies: for MIC: Klebsiella pneumoniae. On the procedure:
as §1, §2

The subject of test [5] is NDM-1 expressing Klebsiella pneumoniae R3934. Kind of test: microbe, parasite or virus in culture. The test is classed as cell-based. As to conditions: for MIC: Klebsiella pneumoniae. On the procedure:
as §1, §2

Test [6] concerns Vancomycin-sensitive E. faecium (ATCC 19634). Kind of test: MIC, micro-dilution broth, VSEm. The test is classed as cell-based. On the procedure: as §1
Test [7] has as its system Methicillin-resistant S. aureus (ATCC 33591). Kind of test: MIC, micro-dilution broth, MRSA. The test is classed as cell-based. On the procedure:
as §1

For test [8], the system named is Vancomycin-resistant E. faecalis (VanA, ATCC 51575). Kind of test: MIC, micro-dilution broth, VREs. The test is classed as cell-based. On the procedure:
as §1

The subject of test [9] is Vancomycin intermediate resistant S. aureus. Kind of test: MIC, micro-dilution broth, VISA. The test is classed as cell-based. The protocol:
as §1

For test [10], the system named is meropenem-resistant NDM-1 bacteria. Description: Combination with meropenem against NDM-1 gram negative bacteria. The test is classed as cell-based. As to conditions: in combination with meropenem. On the procedure:
(§3) Test compounds were assayed in a micro-dilution broth format. Stock solutions were made by serially diluting the compounds using autoclaved millipore water or broth media. The antibacterial activity of the compounds was determined against gram positive bactreia like methicillin-resistant S. aureus (MRSA), vancomycin-intermediate-resistant S. aureus (VISA), vancomycin-sensitive E. faecium (VSE), vancomycin-resistant E. faecalis and vancomycin-resistant E. faecium (VRE). Antibacterial activity of dipicolyl-vancomycin conjugate conjugate (4) in combination with meropemem was determined against gram-negative bacteria such as K. pneumoniae ATCC BAA2146, clinical isolates K. pneumoniae R3949, K. pneumoniae R3934, E. coli R3336 and A. baumanii R676. Bacteria, to be tested, were grown for about 10 h in the suitable media, MRSA, VISA and gram negative bacteria were grown in Yeast-dextrose broth (about 1 g of beef extract, about 2 g of yeast extract, about 5 g of peptone and about 5 g of NaCl in about 1000 mL of sterile distilled water (pH-7)). […] This 6 h grown culture gives about 10^9 cfu/mL and this was determined by spread plating method. […] The plates were then incubated at about 37° C., 150 rpm in the incubator and O.D at 620 nm was recorded at an interval of about 24 h using TECAN (Infinite series, M200 pro) Plate Reader. Each concentration had triplicate values and the whole experiment was done at least twice and the MIC value was determined by taking the average of triplicate O.D. values for each concentration and plotting it against concentration. […]
as §2

Test [11] deals with meropenem-resistant NDM-1 K. pneumoniae R3934. Kind of test: Sepsis infection model in mice. The test is classed as in vivo. The following applies: CD-1 mice, i.p., 10 mg/kg alone, 1 h and 24 h post-infection. The protocol:
Sepsis infection model: About six-week-old, female CD-1 mice (weight, ˜19-24 g) were used for the experiments. Mice were infected intraperitoneally (i.p.) with a dose of ˜10^6 CFU/mouse of meropenem-resistant NDM-1 K. pneumoniae R3934. Then, mice were treated twice at 1 h and 24 h post-infection with a specified i.p. dose of either saline, meropenem (10 mg/kg), compound 4 (10 mg/kg), or a combination of compound 4 (10 mg/kg) and meropenem (10 mg/kg). Here, colistin (5 mg/kg) was used as a positive control. Mice were euthanized after 48 h post-infection and then liver, spleen, kidney and lungs were collected to find out the bacterial density in these organs. Organs were placed into 10 ml sterile saline on ice, and then homogenized. The dilutions of the homogenate were plated onto agar plates, which were incubated for 24 h at 37° C. The bacterial titer was expressed as log10 CFU/g of organ weight.

For the next test, the system named is VREs ATCC 51575. The test is classed as in vivo, E. faecalis. As to conditions: CD-1 mice, 12 mg/kg i.p. once daily, three doses. The protocol: Female CD-1 mice 6 to 8 weeks of age and weighing 20 to 25 g were used in this study. On day −7, all mice were injected intravenously (i.v.) with 0.2 mL of 0.2% λ-carrageenan to increase their susceptibility to bacterial renal infection. λ-Carrageenan increases mice susceptibility to renal infection following i.v. injection, possibly by forming a lattice structure in renal tissue and forming a support structure for bacterial attachment and growth. Bacterial strains that fail to cause renal infection in normal mice produce significant renal infections in λ-carrageenan-treated mice. On day 0, all mice were injected i.v. with 0.2 mL of the bacterial culture (VREs ATCC 51575, 10^8 CFU/mouse) through the tail vein. Four hours after the bacterial inoculation, mice were treated intraperitoneally (i.p.) with vancomycin, compound 4 and linezolid at 12 mg/kg of body weight or 0.2 mL of saline (0.9% NaCl) control (n=5). All the test compounds or saline were administered once daily for an additional two consecutive days for a total of three doses. All mice were sacrificed on day 3. Both kidneys from each mouse were removed aseptically and homogenized in 10 mL of saline. The dilutions of the homogenate were plated onto sheep blood agar plates, which were incubated overnight at about 37° C. The bacterial titer was expressed as log10 CFU/g of kidney weight.

Another test has as its target T1, NDM-1 enzyme (Klebsiella pneumoniae, UniProt C7C422).
T1 construct: made in house; host or cells: E. coli BL21 (DE3)
Description: NDM-1 enzyme inhibition, nitrocefin substrate. The test is classed as biochemical. The following applies: nitrocefin as substrate. On the procedure: The NDM-1 was produced by E. coli BL21 (DE3) carrying pET30a-NDM-1 in LB medium. Initially, the purified NDM-1 enzyme (5 nM, HEPES buffer, pH-7.4) was supplemented with 20 μM ZnSO4 for 30 min. Next, the enzyme was pre-incubated with the inhibitor (compound 4) for 20 min prior to the initiation of the assay by the addition of the substrate (Nitrocefin, 30 μM). Assays were read in 96-well microplate format at 490 nm (absorbance) using TECAN plate reader (Infinite Pro.) at 37° C. IC50s were deduced from a plot of percent loss of activity versus inhibitor concentration.

The next test relates to MRSA. Kind of test: Resistance development study, serial passages. As to conditions: passaged at MIC/2. The test is classed as cell-based, S. aureus. On the procedure:
MIC values of the compound 4 and vancomycin were determined against MRSA as described above. For the next day MIC experiment, the bacterial dilution was made by using the bacteria from sub-MIC concentration of the compounds (at MIC/2). Then, the concentration of this bacteria was adjusted to ˜10^5 CFU/mL based on OD600 and subjected to next MIC assay. After a 24 h incubation period, again bacterial dilution was prepared by using the bacterial suspension from sub-MIC concentration of the compound (at MIC/2) and assayed for another MIC experiment. The process was repeated for 25 passages, and the fold increase in MIC was determined. […] Thus bacteria were unable in acquiring resistance to this compound and this emphasizes the longevity of such compounds in clinics.

The subject of test [12] is Staphylococci (MRSA and VISA) and Enterococci (VREm and VREs). Description: Antibacterial activity, gram positive panel. The test is classed as cell-based. The following applies: VSEm. The protocol:
as §3, with “R676.” for “R676. Bacteria, to be tested, were grown for about 10 h in the suitable media, MRSA, VISA and gram negative bacteria were grown in Yeast-dextrose broth (about 1 g of beef extract, about 2 g of yeast extract, about 5 g of peptone and about 5 g of NaCl in about 1000 mL of sterile distilled water (pH-7)).”

[13] abbreviates: read-out: MIC of Meropenem in absence of compound 4.
The mark [14] stands for this setting: read-out: MIC of Meropenem in absence of compound 5.

Where two headings read alike, the source gives them in different places. Where only a bound is given, the exact number is not on record here.

T1 sequence (C7C422 29-270, looked up, species assumed): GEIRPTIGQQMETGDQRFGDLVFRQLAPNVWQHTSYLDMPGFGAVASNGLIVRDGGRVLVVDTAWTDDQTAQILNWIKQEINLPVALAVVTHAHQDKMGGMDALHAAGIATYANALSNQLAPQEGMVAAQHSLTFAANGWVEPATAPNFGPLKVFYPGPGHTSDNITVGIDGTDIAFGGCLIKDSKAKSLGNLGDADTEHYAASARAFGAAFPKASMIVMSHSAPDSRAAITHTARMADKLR

On to “Dipicolyl-Vancomycin-Zinc Complex [Compound 5]”, for which the MIC in [1] (VREm) was determined as 0.6 µM; in [6] (VSEm), 0.31 µM; in [7] (MRSA), 0.3 µM; in [8] (VREs), 1.5 µM; in test [9] it was 0.3 µM. Besides, the “fold more active than vancomycin” value in test [1] (VREm (VRE), ratio of MIC values) is “about 1250 fold”. Also, the “MIC of Meropenem in presence of compound 5 at 12 μM” value in [2] (Klebsiella pneumoniae ATCC BAA2146), in test [3] (Escherichia coli R3336), in [4] (Klebsiella pneumoniae R3949) and in [5] (Klebsiella pneumoniae R3934) was more than 100 µg/mL in each case. The “resensitization of meropenem-resistant NDM-1 bacteria to meropenem (synergistic activity)” value in test [10] is “did not restore the activity of meropenem”.
On to `C[C@@H](O)[C@H]1C(=O)N2C(C(=O)O)=C(S[C@@H]3CN[C@H](C(=O)N(C)C)C3)[C@H](C)[C@H]12` [Meropenem, meropenem, reference compound], for which the MIC was more than 100 µg/mL in test [2] (ATCCBAA2146, read-out: MIC of Meropenem in absence of compound 4); more than 100 µg/mL in test [2] (ATCCBAA2146, read-out: MIC of Meropenem in absence of compound 5); more than 100 µg/mL in test [3] (setting [13]); more than 100 µg/mL in test [3] (setting [14]); more than 100 µg/mL in test [4] (setting [13]); more than 100 µg/mL in test [4] (setting [14]). The MIC in test [5] (setting [13]) and in [5] (setting [14]) was more than 100 µg/mL each time. Besides, the “in-vivo antibacterial activity, bacterial titer in organs” value in [11] is “did not show any activity”.
Consider `CC(=O)NC[C@H]1CN(c2ccc(N3CCOCC3)c(F)c2)C(=O)O1` [Linezolid, linezolid, reference compound], for which the “reduction of bacterial titer from infected kidneys in comparison to vancomycin” value with VREs ATCC 51575 is recorded as “reduced bacterial titer from the infected kidneys more effectively”. Also, in the test on VREs ATCC 51575 (kidneys), the “CFU reduction compared to vehicle treated control (saline)” value is approximately 4 log10 CFU.
For the compound `CN[C@H](CC(C)C)C(=O)N[C@H]1C(=O)N[C@@H](CC(N)=O)C(=O)N[C@H]2C(=O)N[C@H]3C(=O)N[C@H](C(=O)N[C@H](C(=O)O)c4cc(O)cc(O)c4-c4cc3ccc4O)[C@H](O)c3ccc(c(Cl)c3)Oc3cc2cc(c3O[C@H]2OC(CO)[C@H](O)C(O)C2O[C@H]2C[C@@](C)(N)[C@@H](O)C(C)O2)Oc2ccc(cc2Cl)[C@H]1O` (stereo partly shown) [Vancomycin, reference compound], the MIC in [1] (Enterococcus faecium, ATCC51559) was determined as 750 µM; in test [6] (Enterococcus faecium, ATCC19634) it was 0.6 µM; in test [7] (Staphylococcus aureus) it was 0.63 µM; in test [8] (Enterococcus faecalis, ATCC51575), 250 µM; in [9] (Staphylococcus aureus) it was 13 µM. At NDM-1 enzyme, the “effect on the activity of NDM-1” value is “no effect”. The “fold increase in MIC after 25 serial passages” value in the test with MRSA was approximately 16 fold. In the test with MRSA, the “passages after which the MIC value started increasing” value is 7 passages.
Take `NCCCCCCN(Cc1ccccn1)Cc1ccccn1` [Compound 3, dipicolyl-1,6-hexadiamine]: the MIC in test [1] (VREm), in [6] (VSEm), in test [7] (MRSA), in test [8] (VREs) and in test [9] was more than 100 µM in each case. Also, the “antibacterial activity against any of the bacteria tested” value in test [12] is “did not show any activity”. Also, the “resensitization of meropenem-resistant NDM-1 bacteria to meropenem (synergistic activity)” value in [10] was “did not show any appreciable synergistic activity”.
